Holding throughout (format): in vivo, human
Assay [1] concerns type 1 DM patients with nephropathy. The assay is described as follows: 18-month multi-center, prospective, controlled study of CIIIT on progression of diabetic nephropathy. How it is done:
A study was conducted to assess the effects of Chronic Intermittent Intravenous Insulin Therapy (CIIIT) on the progression of diabetic nephropathy in patients with type 1 diabetes mellitus (DM). This 18-month multi-center, prospective, controlled study involved 49 type 1 DM patients with nephropathy who were following the Diabetes Control and Complications Trial (DCCT) intensive therapy (IT) regimen. Of these, 26 patients formed the control group C, which continued on IT, while 23 patients formed the treatment group (T) and underwent, in addition to IT, weekly CIIIT. […] For all of the above listed examples, after the initial few days of treatment, the patients underwent treatment once a week, each treatment day consisting of three infusions of insulin accompanied by ingestion of carbohydrates. The infusion device used to infuse the insulin was the BIONICA MD-110 pump. Typically there were ten pulses given over a period of one hour, and a rest period of one hour was taken between infusions of insulin. The form in which the carbohydrates were ingested changed from time to time and included eating foods of high glycemic index including but not limited to bread and cake. The patients' circulating glucose was measured once every thirty minutes by the finger stick method currently used by most diabetic patients. […]

For assay [2], the system named is diabetic patients with neuropathy. In words: Case reports: diabetic neuropathy treated with the subject method. The source says:
A middle-aged person with Type 1 diabetes for more than 22 years suffered from polyneuropathy. They had generalized pain and was unable to walk or even wear stockings because of the pain.
A middle-aged person with Type 1 diabetes for more than 30 years had severe peripheral neuropathy, was in constant pain below the knees and had difficulty sleeping at night. […] They have been using the treatment for eight years.
An elder type 2 diabetic patient had severe painful peripheral neuropathy to the point that they were unable to walk and used a wheelchair. […] Because of financial reasons, they stopped the therapy. As a result, the neuropathy returned, and they returned to using a wheelchair.
A middle-aged type 1 diabetic patient had severe neuropathy. They were a parent of two children who was bed-ridden with autonomic neuropathy before using the subject method two years ago. Their muscles had atrophied, they could not digest their food, they had been told that their nerves were dying inside them as a result of their diabetes. They stated that if they had not have two children, they would have taken their life. They had to quit their job, went on disability and was in an out of the hospital very often. They had welts on their head causing hair loss. They had no sensation in their feet, they had constant nausea, and they couldn't sleep at night because of the pain. They had insulin absorption problems and tried all different ways to improve the absorption of insulin into their body. For a number of years they injected themself intramuscularly because they felt that they obtained the best absorption of insulin that way. […] They have not been in the hospital since. […]
For all of the above listed examples, after the initial few days of treatment, the patients underwent treatment once a week, each treatment day consisting of three infusions of insulin accompanied by ingestion of carbohydrates. […] The patients' circulating glucose was measured once every thirty minutes by the finger stick method currently used by most diabetic patients. […]

Assay [3] relates to diabetic patients with heart disease. The assay is described as follows: Case reports: diabetic heart disease treated with the subject method. The source says: A middle-aged person with type 2 diabetes for 17 years was suffering from severe dilated cardiomyopathy (ejection fraction 14-19%). They were placed on the list to receive a heart transplant prior to starting treatment with the subject method. […] The patient has been receiving treatment for 10 years and is still off the heart transplant list. Their ejection fraction is currently 29-32%.
A middle-aged type 2 diabetic patient had severe heart disease including congestive heart failure and severe artereosclerotic heart disease. The patient was scheduled for heart surgery but because of their poor condition, surgeons refused to operate.
An older type 1 diabetic patient who was diabetic was scheduled for a coronary artery by-pass graft to correct their diabetes related heart disease. The surgeons were reluctant to operate in the condition they were in because of their advanced diabetes related arteriosclerosis. They were scheduled for a single vessel graft. […] They continuing using the subject method for several years after the surgery with no further deterioration in their diabetes related heart disease.
(§1) For all of the above listed examples, after the initial few days of treatment, the patients underwent treatment once a week, each treatment day consisting of three infusions of insulin accompanied by ingestion of carbohydrates. The infusion device used to infuse the insulin was the BIONICA MD-110 pump. Typically there were ten pulses given over a period of one hour, and a rest period of one hour was taken between infusions of insulin. The form in which the carbohydrates were ingested changed from time to time and included eating foods of high glycemic index including but not limited to bread and cake. The patients' circulating glucose was measured once every thirty minutes by the finger stick method currently used by most diabetic patients. […] Table 1 below summarizes by the above examples the number of units of insulin per pulse administered and the amount of glucose ingested for each series of pulses: […]

The test system of assay [4] is diabetic patients with retinopathy. The assay is described as follows: Case reports: retinopathy treated with the subject method. An excerpt:
A middle-aged person with type 1 diabetes for 38 years suffered from macular degeneration (retinopathy). They were unable to drive at night. […] The patient has been receiving treatment for 4 years.
A middle-aged type 2 diabetic patient had proliferative diabetic retinopathy with severe bleeding. Multiple photocoagulation scars made additional photocoagulation impossible. […] The patient has been using the subject method for 5 years, and they have had no further bleeding of the retina and no further photocoagulation.
(§2) For all of the above listed examples, after the initial few days of treatment, the patients underwent treatment once a week, each treatment day consisting of three infusions of insulin accompanied by ingestion of carbohydrates. The infusion device used to infuse the insulin was the BIONICA MD-110 pump. Typically there were ten pulses given over a period of one hour, and a rest period of one hour was taken between infusions of insulin. The form in which the carbohydrates were ingested changed from time to time and included eating foods of high glycemic index including but not limited to bread and cake. The patients' circulating glucose was measured once every thirty minutes by the finger stick method currently used by most diabetic patients. […]

The test system of assay [5] is type 2 diabetic patient with diabetes related kidney disease. In words: Case report: diabetes related kidney disease (proteinuria) treated with the subject method. Conditions: before treatment 1500 milligrams of protein during 24 hours, rising 500 milligrams/24 hours/year; 5 years of treatment. How it is done: An older type 2 diabetic was exercising and had excellent circulating glucose control under intense insulin therapy including 3-4 injections per day of subcutaneous insulin. Even so, their diabetes related kidney disease had progressed to the point where they were discharging 1500 milligrams of protein during a 24-hour period and the rate of increase was 500 milligrams/24 hours/year. After using the subject method, the patient's proteinuria was reduced to 600-800 milligrams/24 hours. They have been using the method for 5 years.
as §2

Assay [6] concerns type 2 diabetic male suffering with autonomic neuropathy. The assay is described as follows: Case report: elevated blood pressure with autonomic neuropathy treated with the subject method. Conditions: before treatment 200/120 despite intensive insulin therapy; 5 years of treatment.
From the text: An older type 2 diabetic […] suffering with autonomic neuropathy had very elevated blood pressure readings of 200/120 despite a rigorous program to regulate their circulating glucose using intensive insulin therapy of 3 to 4 subcutaneous insulin injections daily. As a result of using the subject method, their blood pressure decreased to 120/80. They have been using the method for 5 years.
as §1

Assay [7] has as its system diabetic patients with leg ulcers. The assay is described as follows: Case reports: diabetes related leg ulcers treated with the subject method. To be noted: ulcers not responding to any available therapy, Examples 10 and 11; listed as subject method.
From the text: An older type 2 diabetic had one amputated leg as a result of diabetes related ulcers on that leg. They had developed ulcers on the other leg that would not respond to any available therapy and was in danger of losing the other leg to amputation. […] This patient used the subject method for several more years, and no additional ulcers formed.
A middle-aged type 1 diabetic patient had developed severe ulcers on both legs, which would not heal with any available treatment. […] The patient has been using the subject method now for 13 years.
as §2

Assay [8] deals with patients suffering from senile dementia. In words: Senile dementia in patients treated with Hepatic Activation / the present invention. Conditions: diabetic patients with senile dementia. An excerpt:
On many occasions patients who have been diabetics as well as having dementia have been treated with the method of the current invention. Dementia appears to be related to poor metabolism of glucose in the brain, which may well be the result of constricted flow of blood. This poor metabolism is at least in part the cause of the dementia.
A diabetic who was suffering from advanced senile dementia was placed in a nursing home because of excessive confusion, weakness, disorientation and lack of memory. Because the nursing home was not keeping up the strict four shot regimen needed by the patient for their diabetic blood sugar control, the patient's children removed the patient from the nursing home. The attending doctor recommended Hepatic Activation. Once the patient was activated, they returned to a totally independent living style.
For all of the above listed examples, after the initial few days of treatment, the patients underwent treatment once a week, each treatment day consisting of three infusions of insulin accompanied by ingestion of carbohydrates. The infusion device used to infuse the insulin was the BIONICA MD-110 pump. […] The patients' circulating glucose was measured once every thirty minutes by the finger stick method currently used by most diabetic patients. […]

The nature of assay [9]: Circulating glucose by finger stick during insulin pulse treatments. To be noted: during the first treatment; all examples; finger stick every thirty minutes.
From the text: as §1

Setting [10] is: type 1 patient with severe autonomic neuropathy, Example 14.

Entries after “also recorded” stand apart in the source; their conditions may differ.

Consider insulin [CIIIT], for which the “progression of diabetic nephropathy” value in assay [1] (CIIIT added to IT in type 1 DM patients with overt nephropathy) is given as “markedly reduce the progression of diabetic nephropathy”. Besides, in [1] (type 1 DM patients with nephropathy, 18 months, T group (weekly CIIIT added to IT, 23 patients) vs C group (IT alone, 26 patients), P=0.0343), the “rate of CrCl decline” value turned out to be 2.21±1.62 ml/min/yr. Besides, the “neuropathic pain after treatment” value in assay [2] (single patients with polyneuropathy / peripheral neuropathy, listed as subject method) was “the pain has been reduced to the point where the person enjoys rigorous exercise; also recorded: no longer takes pain medication and has no twinges of pain in their legs; also recorded: the pain had subsided to the point where they no longer used a wheelchair”. In assay [2] (setting [10]), the gastroparesis entry is listed as “Her gastroparesis was reversed” and the numbness in legs entry is “The numbness in their legs has gone away”. Also, the postoperative recovery result in assay [3] (after by-pass surgery, Examples 6 and 8, listed as subject method) is listed as “normal postoperative recovery”. In assay [3] (same patient, Example 4, before treatment 150 units a day), the insulin intake was 24-26 units/day. Also, in [3] (single patients, Examples 4, 6, 8, listed as subject method), the “cardiac condition / need or fitness for heart surgery” value is “no longer required a heart transplant; also recorded: could withstand 4-vessel by-pass surgery; also recorded: their condition improved to the point where the doctors performed two instead of one grafts”. The ejection fraction in assay [3] (type 2 diabetic patient, severe dilated cardiomyopathy, before treatment 14-19%, after 10 years of treatment) is listed as 29-32%. In addition, the eyesight entry in [4] (type 1 person, macular degeneration (retinopathy), unable to drive at night before treatment, 4 years of treatment) is on record as “eyesight improved to the point where night driving was no longer a concern”. Further, the retinal bleeding entry in [4] (type 2 male, proliferative diabetic retinopathy with severe bleeding, 5 years of treatment) is “the bleeding stopped, and there was no further deterioration of the retina”. For the same substance, the proteinuria in [5] is on record as 600-800 milligrams/24 hours. For the same substance, the blood pressure in [6] was 120/80. Also, the leg ulcers result in assay [7] is “the ulcers on their second leg healed; also recorded: the ulcers healed and have never returned”. Further, the senile dementia symptoms entry in [8] (listed as Hepatic Activation) was “significant improvement in their motor skills, memory, and cognitive function”. Besides, in assay [8] (listed as present invention), the senile dementia symptoms entry is “clearly shown improvement in confusion, weakness, disorientation, cognitive function and lack of memory”. The “rise of circulating glucose levels” value in assay [9] was 100 to 150 mg/dL.

For the origin of these results see patent US20050137522A1, “System for infusing insulin to a subject to improve impaired hepatic glucose processing” (priority 2003, published 2005).
